What was measured:
A549 [1] = test: Antiproliferative activity against human A549 cells after 48 hrs by MTT assay; type: functional, cell-based; details: A549, 48 h
MCF7 = test: Antiproliferative activity against human MCF7 cells after 48 hrs by MTT assay; type: functional, cell-based; details: MCF7, 48 h
HepG2 = test: Antiproliferative activity against […] HepG2 cells after 48 hrs by MTT assay; type: functional, cell-based; details: Homo sapiens, HepG2, 48 h
Tubulin = Tubulin (Bos taurus, UniProt Q6B856+Q862L2+Q862F3); test: Inhibition of bovine brain tubulin polymerization after 20 mins by turbidimetric method
A549 [2] = test: Induction of apoptosis in human A549 cells assessed as viable cells at 0.01 uM after 24 hrs using Annexin-V/PI staining by flow cytometry (reference value: 91.0 %); type: functional; details: A549, 24 h, read-out: Activity
A549 [3] = test: Induction of apoptosis in human A549 cells assessed as early apoptotic cells at 0.01 uM after 24 hrs using Annexin-V/PI staining by flow cytometry (reference value: 1.92 %); type: functional
A549 [4] = test: Induction of apoptosis in human A549 cells assessed as late apoptotic cells at 0.01 uM after 24 hrs using Annexin-V/PI staining by flow cytometry (reference value: 4.01 %); type: functional
A549 [5] = test: Induction of apoptosis in human A549 cells assessed as necrotic cells at 0.01 uM after 24 hrs using Annexin-V/PI staining by flow cytometry (reference value: 3.11 %); type: functional
A549 [6] = test: Induction of apoptosis in human A549 cells assessed as viable cells at 0.05 uM after 24 hrs using Annexin-V/PI staining by flow cytometry (reference value: 91.0 %); type: functional; details: A549, 24 h, read-out: Activity
A549 [7] = test: Induction of apoptosis in human A549 cells assessed as early apoptotic cells at 0.05 uM after 24 hrs using Annexin-V/PI staining by flow cytometry (reference value: 1.92 %); type: functional
A549 [8] = test: Induction of apoptosis in human A549 cells assessed as late apoptotic cells at 0.05 uM after 24 hrs using Annexin-V/PI staining by flow cytometry (reference value: 4.01 %); type: functional
A549 [9] = test: Induction of apoptosis in human A549 cells assessed as necrotic cells at 0.05 uM after 24 hrs using Annexin-V/PI staining by flow cytometry (reference value: 3.11 %); type: functional
A549 [10] = test: Induction of apoptosis in human A549 cells assessed as viable cells at 0.1 uM after 24 hrs using Annexin-V/PI staining by flow cytometry (reference value: 91.0 %); type: functional; details: A549, 24 h, read-out: Activity
A549 [11] = test: Induction of apoptosis in human A549 cells assessed as early apoptotic cells at 0.1 uM after 24 hrs using Annexin-V/PI staining by flow cytometry (reference value: 1.92 %); type: functional
A549 [12] = test: Induction of apoptosis in human A549 cells assessed as late apoptotic cells at 0.1 uM after 24 hrs using Annexin-V/PI staining by flow cytometry (reference value: 4.01 %); type: functional
A549 [13] = test: Induction of apoptosis in human A549 cells assessed as necrotic cells at 0.1 uM after 24 hrs using Annexin-V/PI staining by flow cytometry (reference value: 3.11 %); type: functional
A549 [14] = test: Cell cycle arrest in human A549 cells assessed as G2/M arrest after 48 hrs by flow cytometry; type: functional, cell-based
A549 [15] = test: Cell cycle arrest in human A549 cells assessed as accumulation at G1 phase at 0.01 uM after 48 hrs by flow cytometry (reference value: 79.42 %); type: functional
A549 [16] = test: Cell cycle arrest in human A549 cells assessed as accumulation at G2 phase at 0.01 uM after 48 hrs by flow cytometry (reference value: 6.75 %); type: functional
A549 [17] = test: Cell cycle arrest in human A549 cells assessed as accumulation at S phase at 0.01 uM after 48 hrs by flow cytometry (reference value: 13.83 %); type: functional
A549 [18] = test: Cell cycle arrest in human A549 cells assessed as accumulation at G1 phase at 0.05 uM after 48 hrs by flow cytometry (reference value: 79.42 %); type: functional
A549 [19] = test: Cell cycle arrest in human A549 cells assessed as accumulation at G2 phase at 0.05 uM after 48 hrs by flow cytometry (reference value: 6.75 %); type: functional
A549 [20] = test: Cell cycle arrest in human A549 cells assessed as accumulation at S phase at 0.05 uM after 48 hrs by flow cytometry (reference value: 13.83 %); type: functional
A549 [21] = test: Cell cycle arrest in human A549 cells assessed as accumulation at G1 phase at 0.1 uM after 48 hrs by flow cytometry (reference value: 79.42 %); type: functional
A549 [22] = test: Cell cycle arrest in human A549 cells assessed as accumulation at G2 phase at 0.1 uM after 48 hrs by flow cytometry (reference value: 6.75 %); type: functional
A549 [23] = test: Cell cycle arrest in human A549 cells assessed as accumulation at S phase at 0.1 uM after 48 hrs by flow cytometry (reference value: 13.83 %); type: functional

SMILES: COc1cc(/C=C/c2nnc(NC(=O)c3cc(OC)c(OC)c(OC)c3Br)s2)c(Br)c(OC)c1OC
- IC50 (A549 [1]): 0.13 µM
- IC50 (MCF7): 0.47 µM
- IC50 (HepG2): 0.2 µM
- IC50 (Tubulin): 16.79 µM

SMILES: COc1ccc(/C=C/c2nnc(NC(=O)c3cc(OC)c(OC)c(OC)c3)s2)cc1OC
- IC50 (A549 [1]): 0.16 µM
- IC50 (MCF7): 0.56 µM
- IC50 (HepG2): 0.22 µM
- IC50 (Tubulin): 28.06 µM

SMILES: COc1cc(/C=C/c2nnc(NC(=O)c3ccc(F)cc3)s2)c(Br)c(OC)c1OC
- IC50 (A549 [1]): 0.19 µM
- IC50 (MCF7): 0.38 µM
- IC50 (HepG2): 0.24 µM
- IC50 (Tubulin): 15.63 µM

SMILES: COc1cccc(C(=O)Nc2nnc(/C=C/c3cc(OC)c(OC)c(OC)c3)s2)c1
- IC50 (A549 [1]): 0.15 µM
- IC50 (MCF7): 0.48 µM
- IC50 (HepG2): 0.27 µM
- IC50 (Tubulin): 22.5 µM

SMILES: COc1ccccc1C(=O)Nc1nnc(/C=C/c2cc(OC)c(OC)c(OC)c2Br)s1
- IC50 (A549 [1]): 0.17 µM
- IC50 (MCF7): 0.6 µM
- IC50 (HepG2): 0.23 µM
- IC50 (Tubulin): 17.91 µM

SMILES: COc1cc(C(=O)Nc2nnc(/C=C/c3cc(OC)c(OC)c(OC)c3Br)s2)cc(OC)c1OC
- IC50 (A549 [1]): 0.14 µM
- IC50 (MCF7): 0.51 µM
- IC50 (HepG2): 0.21 µM
- IC50 (Tubulin): 16.95 µM

SMILES: COc1ccc(C(=O)Nc2nnc(/C=C/c3cc(OC)c(OC)c(OC)c3Br)s2)cc1OC
- IC50 (A549 [1]): 0.03 µM
- IC50 (MCF7): 0.06 µM
- IC50 (HepG2): 0.05 µM
- IC50 (Tubulin): 1.73 µM
- viability at 0.01 µM (A549 [2]): 84.8%
- Activity (A549 [3]): 3.41%
- Activity (A549 [4]): 7.96%
- Activity (A549 [5]): 3.86%
- viability at 0.05 µM (A549 [6]): 77.8%
- Activity (A549 [7]): 5.48%
- Activity (A549 [8]): 12.7%
- Activity (A549 [9]): 4.08%
- viability at 0.1 µM (A549 [10]): 61.8%
- Activity (A549 [11]): 12.9%
- Activity (A549 [12]): 22%
- Activity (A549 [13]): 3.21%
- Activity (A549 [14]): Dose-dependent effect
- Activity (A549 [15]): 73.18%
- Activity (A549 [16]): 7.14%
- Activity (A549 [17]): 19.68%
- Activity (A549 [18]): 37.17%
- Activity (A549 [19]): 53.34%
- Activity (A549 [20]): 9.49%
- Activity (A549 [21]): 0%
- Activity (A549 [22]): 89.26%
- Activity (A549 [23]): 10.74%

SMILES: COc1cccc(C(=O)Nc2nnc(/C=C/c3cc(OC)c(OC)c(OC)c3Br)s2)c1
- IC50 (A549 [1]): 0.06 µM
- IC50 (MCF7): 0.17 µM
- IC50 (HepG2): 0.12 µM
- IC50 (Tubulin): 3.08 µM

SMILES: COc1cccc(/C=C/c2nnc(NC(=O)c3cc(OC)c(OC)c(OC)c3Br)s2)c1
- IC50 (A549 [1]): 0.19 µM
- IC50 (MCF7): 0.59 µM
- IC50 (HepG2): 0.21 µM
- IC50 (Tubulin): 30.36 µM

SMILES: COc1cc(/C=C/c2nnc(NC(=O)c3ccccc3Br)s2)c(Br)c(OC)c1OC
- IC50 (A549 [1]): 0.21 µM
- IC50 (MCF7): 0.37 µM
- IC50 (HepG2): 0.25 µM
- IC50 (Tubulin): 19.45 µM

SMILES: COc1cc(/C=C/c2nnc(NC(=O)c3ccccc3)s2)c(Br)c(OC)c1OC
- IC50 (A549 [1]): 0.11 µM
- IC50 (MCF7): 0.29 µM
- IC50 (HepG2): 0.18 µM
- IC50 (Tubulin): 9.83 µM

SMILES: COc1cc(/C=C/c2nnc(NC(=O)c3cccc(F)c3)s2)c(Br)c(OC)c1OC
- IC50 (A549 [1]): 0.08 µM
- IC50 (MCF7): 0.34 µM
- IC50 (HepG2): 0.17 µM
- IC50 (Tubulin): 7.08 µM

SMILES: COc1cc(/C=C/c2nnc(NC(=O)c3ccc(Br)cc3)s2)c(Br)c(OC)c1OC
- IC50 (A549 [1]): 0.16 µM
- IC50 (MCF7): 0.32 µM
- IC50 (HepG2): 0.2 µM
- IC50 (Tubulin): 15.09 µM

SMILES: COc1cc(/C=C/c2nnc(NC(=O)c3ccc(Cl)cc3)s2)c(Br)c(OC)c1OC
- IC50 (A549 [1]): 0.14 µM
- IC50 (MCF7): 0.28 µM
- IC50 (HepG2): 0.18 µM
- IC50 (Tubulin): 11.81 µM

SMILES: COc1ccc(C(=O)Nc2nnc(/C=C/c3cc(OC)c(OC)c(OC)c3)s2)cc1OC
- IC50 (A549 [1]): 0.13 µM
- IC50 (MCF7): 0.48 µM
- IC50 (HepG2): 0.25 µM
- IC50 (Tubulin): 15.5 µM

SMILES: COc1cc(/C=C/c2nnc(NC(=O)c3cccc(Br)c3)s2)c(Br)c(OC)c1OC
- IC50 (A549 [1]): 0.08 µM
- IC50 (MCF7): 0.26 µM
- IC50 (HepG2): 0.16 µM
- IC50 (Tubulin): 6.02 µM

SMILES: COc1cc(/C=C/c2nnc(NC(=O)c3cccc(O)c3)s2)c(Br)c(OC)c1OC
- IC50 (A549 [1]): 0.12 µM
- IC50 (MCF7): 0.36 µM
- IC50 (HepG2): 0.22 µM
- IC50 (Tubulin): 13.44 µM

SMILES: COc1ccc(/C=C\c2cc(OC)c(OC)c(OC)c2)cc1O [COMBRETASTATIN A4]
- IC50 (HepG2): 0.16 µM

SMILES: COc1ccc(C(=O)Nc2nnc(/C=C/c3cc(OC)c(OC)c(OC)c3Br)s2)cc1
- IC50 (A549 [1]): 0.15 µM
- IC50 (MCF7): 0.56 µM
- IC50 (HepG2): 0.22 µM
- IC50 (Tubulin): 18.79 µM

SMILES: COc1cc(/C=C/c2nnc(NC(=O)c3cccc(O)c3)s2)cc(OC)c1OC
- IC50 (A549 [1]): 0.19 µM
- IC50 (MCF7): 0.46 µM
- IC50 (HepG2): 0.26 µM
- IC50 (Tubulin): 23.67 µM

SMILES: COc1cc(/C=C/c2nnc(NC(=O)c3cccc(Cl)c3)s2)c(Br)c(OC)c1OC
- IC50 (A549 [1]): 0.07 µM
- IC50 (MCF7): 0.23 µM
- IC50 (HepG2): 0.15 µM
- IC50 (Tubulin): 5.68 µM

SMILES: COc1ccc(/C=C/c2nnc(NC(=O)c3cc(OC)c(OC)c(OC)c3Br)s2)cc1
- IC50 (A549 [1]): 0.18 µM
- IC50 (MCF7): 0.55 µM
- IC50 (HepG2): 0.21 µM
- IC50 (Tubulin): 28.58 µM

SMILES: COc1cc(/C=C/c2nnc(NC(=O)c3cc(OC)c(OC)c(OC)c3)s2)cc(OC)c1OC
- IC50 (A549 [1]): 0.16 µM
- IC50 (MCF7): 0.49 µM
- IC50 (HepG2): 0.28 µM
- IC50 (Tubulin): 23.94 µM

SMILES: COc1ccc(/C=C/c2nnc(NC(=O)c3ccccc3OC)s2)cc1OC
- IC50 (A549 [1]): 0.17 µM
- IC50 (MCF7): 0.54 µM
- IC50 (HepG2): 0.26 µM
- IC50 (Tubulin): 29.44 µM

From ChEMBL document CHEMBL3352670, “Synthesis, biological evaluation and molecular modeling of 1,3,4-thiadiazol-2-amide derivatives as novel antitubulin agents” (Bioorg Med Chem, 2014)
